# Earlier results, collected in patent EP3173487A1 (priority 2015, dated 2017).
# System: haloalkane dehalogenases
# Settings: pH 8.6
row,Structure (SMILES),classification as substrate of the analyzed haloalkane dehalogenases
1,"BrCCBr [1,2-dibromoethane]",universal
2,CCCI [1-iodopropane],universal
3,ClC1CCCCC1 [chlorocyclohexane],poor
4,BrCC1CCCCC1 [(bromomethyl)cyclohexane],poor
5,N#CCCCBr [4-bromobutanenitrile],universal
6,"ClCC(Cl)CCl [1,2,3-trichloropropane]",poor
7,CCCCBr [1-bromobutane],universal
8,"CC(Cl)CCl (stereo not drawn) [1,2-dichloropropane]",poor
9,CCCCI [1-iodobutane],universal
